Values quoted from earlier work, collected in patent US12343373B2, “Glycopeptide antibiotics liquid formulations and methods and uses thereof” (SOMERSET THERAPEUTICS, LLC, priority 2020, dated 2025).
Where two headings read alike, the source gives them in different places.

Key:
[1] = oral dosing

## CSCC[C@H](NC(C)=O)C(=O)O [NALM, N-acetyl-L-methionine]
[1]
  hydrolysis to methionine: completely hydrolyzed to L-methionine and acetic acid

## polyethylene glycol 400 [polyethylene glycol (PEG 400)]
In vivo
  embryo-fetal toxicity: caused fetal malformations

## CSCC[C@@H](NC(C)=O)C(=O)O [NADM, N-acetyl-D-methionine]
[1]
  hydrolysis to methionine: only minimally hydrolyzed to D- and L-methionine

## CC(=O)N[C@H](C)C(=O)O [N-acetyl D-alanine (NADA), N-acetyl-D-alanine]
Animal reproduction studies, product label black box warning
  embryo-fetal toxicity: caused fetal malformations
